Columns and labels:
vessel = vessel relaxation assay
[1] = system: reactive nitrogen species (RNS), detected as S-nitrosothiols in rat plasma; assay: DAN assay of reactive nitrogen species in plasma after oral dosing of rats; assay type: in vivo, Sprague-Dawley rats; conditions: fasted SD rats, 40 mpk PO
Experimental: Mononitrate compounds that have been orally dosed to rats result in nitrites (metabolites of nitric oxide) circulating in plasma with maximal concentrations in the 0.5-2 μM range. Similar dosing of isosorbide mononitrate compounds described in this invention results in increased circulating nitrite concentrations. Biochemical evidence for the generation of NO in vivo in response to test compound administration was obtained from studies in Sprague-Dawley rats. Administration of test compound to fasted SD rats (40 mpk, PO) results in the appearance of reactive nitrogen species (RNS), assessed using the diaminonapthalene derivitization (DAN) assay.
RNS were detected as S-nitrosothiols (RNSOs) in EDTA-treated rat plasma using an HPLC fluorescent assay based on the method of Kostka and Park (Methods Enzymol. 1999, 301, 227-235). The method is based on the detection of fluorescent 2,3-naphthotriazole (NAT) formed in the reaction between acidified 2,3-diaminonaphthalene and the nitrosonium moiety of RSNOs released by HgCl2-mediated breakdown of the S—NO bond. The reaction mixture was chromatographed by reversed phase HPLC, and the fluorescent signal of the resolved NAT peak was quantified.
Plasma (20 μL) was first diluted 1:1 in H2O (20 μL) in a black polypropylene untreated microtiter plate. DAN reagent (100 μL per well, 100 μM DAN in 0.1 N HCl, 4 mM HgCl2) was added, and the plate was immediately sealed with an opaque plate mat, vortexed, and incubated in the dark for 10 min. Plates were centrifuged (2000×g, 5 min) and chilled to 4° C. before HPLC analysis. HPLC was carried out on an Agilent 1200 system using a chilled autosampler (4° C.). Samples were chromatographed on a C8 column (Zorbax Eclipse XDB-C8, 4.6×150 mm, 5 μm) with isocratic elution using a mobile phase of 67% MeOH, 0.1% NH4OAc and a flow rate of 2 mL/min. NAT fluorescence was monitored at 450 nm using an excitation wavelength of 360 nm. Calibration curves were prepared using NaNO2 in control plasma.
RNS change for Examples 2, 3, 4, 5, 7, 10, 11 and 12 was measured at 1, 3, 6 and 24 hours, and is shown below.

| Compound | EC50 (vessel) [µM] | DAN ΔRNS ([1]; 1 h) [µM] | DAN ΔRNS ([1]; 3 h) [µM] | DAN ΔRNS ([1]; 6 h) [µM] | DAN ΔRNS ([1]; 24 h) [µM] |
| --- | --- | --- | --- | --- | --- |
| 2-{[(3S,3aR,6R,6aS)-6-(nitrooxy)hexahydrofuro[3,2-b]furan-3-yl]oxy}-2-oxoethyl 2-butyl-4-chloro-1-{[2′-(1H-tetrazol-5-yl)biphenyl-4-yl]methyl}-1H-imidazole-5-carboxylate [Example 9] | 5.1 |  |  |  |  |
| CCOc1nc2cccc(C(=O)OC(C)(C)OC(=O)O[C@H]3CO[C@H]4[C@@H]3OC[C@H]4O[N+](=O)[O-])c2n1Cc1ccc(-c2ccccc2-c2nnn[nH]2)cc1 [Example 1, 1-[({[(3S,6R)-6-(nitrooxy)hexahydrofuro[3,2-b]furan-3-yl]oxy}carbonyl)oxy]-1-methylethyl 2-ethoxy-1-{[2′-(1H-tetrazol-5-yl)biphenyl-4-yl]methyl}-1H-benzimidazole-7-carboxylate] | 14.2 |  |  |  |  |
| CCCCc1nc(Cl)c(C(=O)O[C@H](C)OC(=O)O[C@H]2CO[C@H]3[C@@H]2OC[C@H]3O[N+](=O)[O-])n1Cc1ccc(-c2ccccc2-c2nnn[nH]2)cc1 [Example 2, (1S)-1-[({[(3S,3aR,6R,6aS)-6-(nitrooxy)hexahydrofuro[3,2-b]furan-3-yl]oxy}carbonyl)oxy]ethyl 2-butyl-4-chloro-1-{[2′-(1H-tetrazol-5-yl)biphenyl-4-yl]methyl}-1H-imidazole-5-carboxylate] | 9.5 | 2.3 ± 1.0 | 6.1 ± 1.1 | 4.5 ± 1.4 | 1.1 ± 0.7 |
| CCCCc1nc(Cl)c(C(=O)O[C@@H](C)OC(=O)O[C@H]2CO[C@H]3[C@@H]2OC[C@H]3O[N+](=O)[O-])n1Cc1ccc(-c2ccccc2-c2nnn[nH]2)cc1 [Example 3, (1R)-1-[({[(3S,3aR,6R,6aS)-6-(nitrooxy)hexahydrofuro[3,2-b]furan-3-yl]oxy}carbonyl)oxy]ethyl 2-butyl-4-chloro-1-{[2′-(1H-tetrazol-5-yl)biphenyl-4-yl]methyl}-1H-imidazole-5-carboxylate] | 15.4 | 0.5 ± 0.4 | 2.7 ± 0.5 | 3.0 ± 0.5 | 0.1 ± 0.7 |
| CCOc1nc2cccc(C(=O)O[C@H](C)OC(=O)O[C@H]3CO[C@H]4[C@@H]3OC[C@H]4O[N+](=O)[O-])c2n1Cc1ccc(-c2ccccc2-c2nnn[nH]2)cc1 [Example 4, (1S)-1-[({[(3S,3aR,6R,6aS)-6-(nitrooxy)hexahydrofuro[3,2-b]furan-3-yl]oxy}carbonyl)oxy]ethyl 2-ethoxy-1-{[2′-(1H-tetrazol-5-yl)biphenyl-4-yl]methyl}-1H-benzimidazole-7-carboxylate] | 8.9 | 0.9 ± 0.2 | 2.1 ± 1.4 | 4.2 ± 2.1 | 0.6 ± 0.3 |
| CCOc1nc2cccc(C(=O)O[C@@H](C)OC(=O)O[C@H]3CO[C@H]4[C@@H]3OC[C@H]4O[N+](=O)[O-])c2n1Cc1ccc(-c2ccccc2-c2nnn[nH]2)cc1 [Example 5, (1R)-1-[({[(3S,3aR,6R,6aS)-6-(nitrooxy)hexahydrofuro[3,2-b]furan-3-yl]oxy}carbonyl)oxy]ethyl 2-ethoxy-1-{[2′-(1H-tetrazol-5-yl)biphenyl-4-yl]methyl}-1H-benzimidazole-7-carboxylate] |  | 0.7 ± 0.5 | 2.5 ± 1.0 | 2.4 ± 1.2 | -0.3 ± 0.6 |
| CCCCc1nc(Cl)c(C(=O)O[C@H]2CO[C@H]3[C@@H]2OC[C@H]3O[N+](=O)[O-])n1Cc1ccc(-c2ccccc2-c2nnn[nH]2)cc1 [Example 7, (3S,3aR,6R,6aS)-6-(nitrooxy)hexahydrofuro[3,2-b]furan-3-yl 2-butyl-4-chloro-1-{[2′-(1H-tetrazol-5-yl)biphenyl-4-yl]methyl}-1H-imidazole-5-carboxylate] |  | 5.4 ± 3.2 | 1.5 ± 1.2 | 0.2 ± 0.3 | -0.3 ± 0.2 |
| CCCCc1nc(Cl)c(C(=O)O[C@H](C)C(=O)O[C@H]2CO[C@H]3[C@@H]2OC[C@H]3O[N+](=O)[O-])n1Cc1ccc(-c2ccccc2-c2nnn[nH]2)cc1 [Example 10, (1R)-1-methyl-2-{[(3S,3aR,6R,6aS)-6-(nitrooxy)hexahydrofuro[3,2-b]furan-3-yl]oxy}-2-oxoethyl 2-butyl-4-chloro-1-{[2′-(1H-tetrazol-5-yl)biphenyl-4-yl]methyl}-1H-imidazole-5-carboxylate] |  | 0.7 ± 0.3 | 2.0 ± 0.4 | 1.9 ± 0.7 | 0.1 ± 0.3 |
| CCCCc1nc(Cl)c(C(=O)O[C@@H](C)C(=O)O[C@H]2CO[C@H]3[C@@H]2OC[C@H]3O[N+](=O)[O-])n1Cc1ccc(-c2ccccc2-c2nnn[nH]2)cc1 [Example 11, (1S)-1-methyl-2-{[(3S,3aR,6R,6aS)-6-(nitrooxy)hexahydrofuro[3,2-b]furan-3-yl]oxy}-2-oxoethyl 2-butyl-4-chloro-1-{[2′-(1H-tetrazol-5-yl)biphenyl-4-yl]methyl}-1H-imidazole-5-carboxylate] |  | 1.1 ± 1.2 | 3.3 ± 1.5 | 1.8 ± 2.0 | 0.1 ± 1.8 |
| CCCCc1nc(Cl)c(C(=O)OCCC(=O)O[C@H]2CO[C@H]3[C@@H]2OC[C@H]3O[N+](=O)[O-])n1Cc1ccc(-c2ccccc2-c2nnn[nH]2)cc1 [Example 12, 3-{[(3S,3aR,6R,6aS)-6-(nitrooxy)hexahydrofuro[3,2-b]furan-3-yl]oxy}-3-oxopropyl 2-butyl-4-chloro-1-{[2′-(1H-tetrazol-5-yl)biphenyl-4-yl]methyl}-1H-imidazole-5-carboxylate] | 20.6 | 0.5 ± 0.2 | 1.5 ± 0.9 | 1.3 ± 0.6 | 0.0 ± 0.2 |

Source: patent US8207208B2, “Angiotensin II receptor antagonists” (Merck Sharp & Dohme Corp., priority 2008, dated 2012)
